Values quoted from earlier work in patent US11207270B2, “Controlled release dosage forms for high dose, water soluble and hygroscopic drug substances” (priority 2010, dated 2021).

Columns and labels:
[1] = test system: patients suffering from disorders of disturbed sleep, including narcolepsy; conditions: human, in vivo
[2] = test system: non-narcoleptic patients with fibromyalgia
[3] = test system: patients with hyperkinetic movement disorders including ethanol responsive myoclonus and essential tremor; conditions: 5 patients
[4] = given orally, in man

SMILES	Stage 3-4 (slow wave) sleep [1]	nocturnal awakenings [1]	total nocturnal sleep time [1]	plasma levels (immediate release formulation, dose between about 2.25 g and 4.5 g, within 4 hours of ingestion)	Cmax/Cmin ratio (two separate immediate release doses, over a six hour period)	estimates of overall wellness ([2]; before and after treatment)	subjective assessments of levels of pain and fatigue ([2]; over all 4 weeks of treatment compared to baseline)	blinded ratings of ethanol responsive myoclonus and tremor [3]	tolerability [3]	plasma half-life [4]
O=C(O)CCCO [GHB, gamma-hydroxy butyrate]	increase	decrease	increase	below 10 ug/mL	greater than 4	significant improvement	significant improvements	–	–	–
O=C([O-])CCCO.[Na+] [sodium oxybate]	–	–	–	–	–	–	–	dose-dependent improvements	tolerated at doses that provided clinical benefit	about 45 minutes
